Measured values from ChEMBL document CHEMBL1201862, “PubChem BioAssay data set” (2004).
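Exposure lasted 48 hours, with cells grown in 96-well plates and compounds tested at five concentrations. GI50: concentration for 50% inhibition of growth.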 Active and inactive are the calls of the source. Cut-off read from the data, not from the text of the source: active = GI50 up to about 1.1 µM and inactive = higher.

What was measured:
Test in all cases: NCI tumour cell line growth inhibition, 48 h
[1] = tested on: PC-3
[2] = tested on: SK-OV-3
[3] = tested on: K562
[4] = tested on: SF-539
[5] = tested on: EKVX
[6] = tested on: NCI-H522
[7] = tested on: OVCAR-4
[8] = tested on: NCI-H226
[9] = tested on: DU-145
[10] = tested on: UACC-62
[11] = tested on: HCC 2998
[12] = tested on: CAKI-1
[13] = tested on: OVCAR-5
[14] = tested on: SK-MEL-5
[15] = tested on: U-251
[16] = tested on: MOLT-4
[17] = tested on: SF-295
[18] = tested on: M14
[19] = tested on: HL-60
[20] = tested on: SN12C
[21] = tested on: SK-MEL-28
[22] = tested on: MDA-MB-231
[23] = tested on: SK-MEL-2
[24] = tested on: MCF7
[25] = tested on: NCI-H460
[26] = tested on: HOP-62
[27] = tested on: RXF 393
[28] = tested on: SNB-19
[29] = tested on: KM12
[30] = tested on: OVCAR-8
[31] = tested on: LOX IMVI
[32] = tested on: BT-549
[33] = tested on: Malme-3M
[34] = tested on: UACC-257
[35] = tested on: MDA-N
[36] = tested on: A498
[37] = tested on: T47D
[38] = tested on: IGROV-1
[39] = tested on: HOP-92
[40] = tested on: HCT-15
[41] = tested on: SF-268
[42] = tested on: SW-620
[43] = tested on: Hs-578T
[44] = tested on: CCRF-CEM
[45] = tested on: ACHN
[46] = tested on: 786-0
[47] = tested on: HT-29
[48] = tested on: MDA-MB-435
[49] = tested on: SNB-75
[50] = tested on: NCI/ADR-RES
[51] = tested on: HCT-116
[52] = tested on: UO-31
[53] = tested on: A549
[54] = tested on: NCI-H23
[55] = tested on: TK-10
[56] = tested on: COLO 205
[57] = tested on: OVCAR-3
[58] = tested on: SR
[59] = tested on: RPMI-8226

N=c1sc2ccccc2n1CC[S-].c1ccc2c(c1)sc1[n+]2CCS1
GI50 [1]: 29.8 µM (inactive)
GI50 [2]: 23.1 µM (inactive)
GI50 [3]: 16.7 µM (inactive)
GI50 [4]: 6.58 µM (inactive)
GI50 [5]: 22 µM (inactive)
GI50 [6]: 18 µM (inactive)
GI50 [7]: 16.4 µM (inactive)
GI50 [8]: 16.7 µM (inactive)
GI50 [9]: 21.2 µM (inactive)
GI50 [10]: 14 µM (inactive)
GI50 [11]: 17.1 µM (inactive)
GI50 [12]: 16.9 µM (inactive)
GI50 [13]: 20.5 µM (inactive)
GI50 [14]: 14.8 µM (inactive)
GI50 [15]: 15.5 µM (inactive)
GI50 [16]: 3 µM (inactive)
GI50 [17]: 17.4 µM (inactive)
GI50 [18]: 16.1 µM (inactive)
GI50 [19]: 22.5 µM (inactive)
GI50 [20]: 21.1 µM (inactive)
GI50 [21]: 18.7 µM (inactive)
GI50 [22]: 17 µM (inactive)
GI50 [23]: 18.2 µM (inactive)
GI50 [24]: 12.9 µM (inactive)
GI50 [25]: 14.4 µM (inactive)
GI50 [26]: 17.3 µM (inactive)
GI50 [27]: 20.7 µM (inactive)
GI50 [28]: 19.3 µM (inactive)
GI50 [29]: 17.5 µM (inactive)
GI50 [30]: 17.1 µM (inactive)
GI50 [31]: 16.9 µM (inactive)
GI50 [32]: 23.1 µM (inactive)
GI50 [33]: 17.7 µM (inactive)
GI50 [34]: 17.8 µM (inactive)
GI50 [35]: 37.1 µM (inactive)
GI50 [36]: 14.7 µM (inactive)
GI50 [37]: 23.6 µM (inactive)
GI50 [38]: 12.5 µM (inactive)
GI50 [39]: 17 µM (inactive)
GI50 [40]: 16.7 µM
GI50 [41]: 20 µM (inactive)
GI50 [42]: 17.1 µM (inactive)
GI50 [43]: 42.6 µM (inactive)
GI50 [44]: 9.06 µM (inactive)
GI50 [45]: 16.3 µM (inactive)
GI50 [46]: 16.8 µM (inactive)
GI50 [47]: 19 µM (inactive)
GI50 [48]: 15.7 µM (inactive)
GI50 [49]: 41.5 µM (inactive)
GI50 [50]: 20.4 µM (inactive)
GI50 [51]: 16.9 µM (inactive)
GI50 [52]: 12.5 µM (inactive)
GI50 [53]: 16.9 µM (inactive)
GI50 [54]: 16.1 µM (inactive)
GI50 [55]: 22.8 µM (inactive)
GI50 [56]: 14.3 µM (inactive)
GI50 [57]: 19.3 µM (inactive)

COc1cc2c(cc1O)NC(=O)[C@@H]1CCCN1C2=O
GI50 [1]: > 100 µM (inactive)
GI50 [2]: > 100 µM (inactive)
GI50 [3]: > 100 µM (inactive)
GI50 [4]: > 100 µM (inactive)
GI50 [5]: > 100 µM (inactive)
GI50 [6]: > 100 µM (inactive)
GI50 [7]: > 100 µM (inactive)
GI50 [8]: > 100 µM (inactive)
GI50 [9]: > 100 µM (inactive)
GI50 [10]: > 100 µM (inactive)
GI50 [11]: > 100 µM (inactive)
GI50 [12]: > 100 µM (inactive)
GI50 [13]: > 100 µM (inactive)
GI50 [14]: > 100 µM (inactive)
GI50 [15]: > 100 µM (inactive)
GI50 [16]: > 100 µM (inactive)
GI50 [17]: > 100 µM (inactive)
GI50 [18]: > 100 µM (inactive)
GI50 [20]: > 100 µM (inactive)
GI50 [21]: > 100 µM (inactive)
GI50 [22]: > 100 µM (inactive)
GI50 [23]: > 100 µM (inactive)
GI50 [24]: > 100 µM (inactive)
GI50 [25]: > 100 µM (inactive)
GI50 [26]: > 100 µM (inactive)
GI50 [58]: > 100 µM (inactive)
GI50 [27]: > 100 µM (inactive)
GI50 [28]: > 100 µM (inactive)
GI50 [29]: > 100 µM (inactive)
GI50 [30]: > 100 µM (inactive)
GI50 [31]: > 100 µM (inactive)
GI50 [32]: > 100 µM (inactive)
GI50 [33]: > 100 µM (inactive)
GI50 [34]: > 100 µM (inactive)
GI50 [35]: > 100 µM (inactive)
GI50 [36]: > 100 µM (inactive)
GI50 [37]: > 100 µM (inactive)
GI50 [59]: > 100 µM (inactive)
GI50 [38]: > 100 µM (inactive)
GI50 [39]: > 100 µM (inactive)
GI50 [40]: > 100 µM
GI50 [41]: > 100 µM (inactive)
GI50 [42]: > 100 µM (inactive)
GI50 [43]: 24 µM (inactive)
GI50 [44]: > 100 µM (inactive)
GI50 [45]: > 100 µM (inactive)
GI50 [46]: > 100 µM (inactive)
GI50 [47]: > 100 µM (inactive)
GI50 [48]: > 100 µM (inactive)
GI50 [49]: > 100 µM (inactive)
GI50 [50]: > 100 µM (inactive)
GI50 [51]: > 100 µM (inactive)
GI50 [52]: > 100 µM (inactive)
GI50 [53]: > 100 µM (inactive)
GI50 [54]: > 100 µM (inactive)
GI50 [55]: > 100 µM (inactive)
GI50 [56]: > 100 µM (inactive)
GI50 [57]: > 100 µM (inactive)
